From patent US11840686B2, “Modulation of prekallikrein (PKK) expression” (Ionis Pharmaceuticals, Inc., priority 2013, dated 2023)
pIC50: −log10 of the molar value. Strand notation (5' to 3'): a small letter for the sugar, then the base; units joined by * are phosphorothioate-linked, units joined directly phosphodiester-linked; [ ] holds rarer units or linkages, { } end groups; capitals alone tell only the bases. e = 2'-O-(2-methoxyethyl) (MOE); [5mC] = 5-methylcytosine; d = 2'-deoxy (DNA)

Legend:
[1] = system: human PKK mRNA; test: Dose-dependent antisense inhibition of human PKK in HepaRG cells, 0.12-10.00 uM (Example 4); type: cell-based; details: electroporation, ~16 h
Method: Cells were plated at a density of 20,000 cells per well and transfected using electroporation with 0.12 μM, 0.37 μM, 1.11 μM, 3.33 μM, and 10.00 μM concentrations of antisense oligonucleotide. After a treatment period of approximately 16 hours, RNA was isolated from the cells and PKK mRNA levels were measured by quantitative real-time PCR. Human PKK primer probe set RTS3454 was used to measure mRNA levels. PKK mRNA levels were adjusted according to total RNA content, as measured by RIBOGREEN®. The antisense oligonucleotides were tested in a series of experiments that had similar culture conditions. Results are presented as percent inhibition of PKK, relative to untreated control cells.
The half maximal inhibitory concentration (IC50) of each oligonucleotide is also presented.

[2] = system: human PKK mRNA; test: Antisense inhibition of human PKK mRNA in HepaRG cells, 3,000 nM (Example 1); type: cell-based; details: relative to untreated control cells
In short: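 Values give percent PKK mRNA reduction relative to untreated controls, normalised to RIBOGREEN total RNA. mRNA was quantified by real-time PCR (RTS3454) about 24 h after electroporation. Each 20-mer MOE gapmer was delivered at 3,000 nM into 20,000 HepaRG cells per well.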

[3] = Table 2, PKK mRNA, HepaRG cells, 3,000 nM, electroporation, ~24 h
[4] = Table 4, HepaRG cells, electroporation with 3,000 nM antisense oligonucleotide, approx. 24 hours, PKK mRNA by RT-PCR (RTS3454)
[5] = Table 1, PKK mRNA, HepaRG cells, 3,000 nM, electroporation, ~24 h

Row | Substance | percent inhibition of PKK at 0.12 μM ([1]; Table 32, 0.12 μM) [%] | percent inhibition of PKK at 0.37 μM ([1]; Table 32, 0.37 μM) [%] | percent inhibition of PKK at 1.11 μM ([1]; Table 32, 1.11 μM) [%] | percent inhibition of PKK at 3.33 μM ([1]; Table 32, 3.33 μM) [%] | percent inhibition of PKK at 10.00 μM ([1]; Table 32, 10.00 μM) [%] | pIC50 ([1]; Table 32, PKK mRNA) | % inhibition [2, 3] [%] | percent inhibition of PKK at 0.12 μM ([1]; Table 33, 0.12 μM) [%] | percent inhibition of PKK at 0.37 μM ([1]; Table 33, 0.37 μM) [%] | percent inhibition of PKK at 1.11 μM ([1]; Table 33, 1.11 μM) [%] | percent inhibition of PKK at 3.33 μM ([1]; Table 33, 3.33 μM) [%] | percent inhibition of PKK at 10.00 μM ([1]; Table 33, 10.00 μM) [%] | pIC50 ([1]; Table 33, PKK mRNA) | % inhibition [2, 4] [%] | % inhibition [2, 5] [%]
1 | 531022 (eG*eT*eA*eA*eT*dG*dT*d[5mC]*dT*dG*dA*d[5mC]*dA*dG*dA*eT*eT*eT*eA*eA; antisense) [compound 531022] | 0 | 0 | 32 | 62 | 77 | 5.66 | 74 | – | – | – | – | – | – | – | –
2 | 486847 (antisense eA*eG*eG*e[5mC]*eA*dT*dA*dT*dT*dG*dG*dT*dT*dT*dT*eT*eG*eG*eA*eA) [compound 486847] | 0 | 34 | 48 | 71 | 87 | 5.96 | 78 | – | – | – | – | – | – | – | –
3 | 531071 (e[5mC]*eT*eG*e[5mC]*eT*d[5mC]*dT*dG*dT*dG*dT*dT*dT*dT*d[5mC]*eT*e[5mC]*eT*eA*eA; antisense) [compound 531071] | – | – | – | – | – | – | 73 | 23 | 37 | 56 | 83 | 83 | 6.15 | – | –
4 | 531236 (eA*eT*e[5mC]*eA*e[5mC]*dT*dG*dT*dA*d[5mC]*dT*dA*dG*dT*dT*eT*e[5mC]*e[5mC]*eT*eA; antisense) [compound 531236] | – | – | – | – | – | – | – | 4 | 28 | 59 | 85 | 93 | 6.10 | 87 | –
5 | 531234 (e[5mC]*eA*e[5mC]*eT*eG*dT*dA*d[5mC]*dT*dA*dG*dT*dT*dT*d[5mC]*e[5mC]*eT*eA*eT*eA; antisense) [compound 531234] | – | – | – | – | – | – | – | 24 | 21 | 47 | 72 | 82 | 5.85 | 86 | –
6 | 531069 (e[5mC]*e[5mC]*eA*eG*eT*d[5mC]*d[5mC]*dA*dT*dG*dT*dA*d[5mC]*dT*d[5mC]*eA*eG*e[5mC]*eG*eA; antisense) [compound 531069] | – | – | – | – | – | – | 56 | 19 | 39 | 48 | 76 | 83 | 6.05 | – | –
7 | 531055 (antisense e[5mC]*e[5mC]*e[5mC]*eT*eT*d[5mC]*dT*dT*dT*dA*dT*dA*dG*d[5mC]*d[5mC]*eA*eG*e[5mC]*eA*e[5mC]) [compound 531055] | – | – | – | – | – | – | 68 | 3 | 28 | 64 | 76 | 81 | 6.05 | – | –
8 | 530959 (antisense eT*e[5mC]*eA*eA*e[5mC]*dA*d[5mC]*dT*dG*d[5mC]*dT*dA*dA*d[5mC]*d[5mC]*eT*eT*eA*eG*eA) [compound 530959] | 12 | 27 | 53 | 80 | 94 | 6.05 | – | – | – | – | – | – | – | – | 60
9 | 531198 (eG*eG*eG*eA*eT*dT*dT*dT*dG*d[5mC]*dT*dG*dA*dA*dG*e[5mC]*eT*eG*eG*eT; antisense) [compound 531198] | – | – | – | – | – | – | – | 0 | 35 | 62 | 76 | 60 | 6.10 | 73 | –
10 | 531233 (eA*e[5mC]*eT*eG*eT*dA*d[5mC]*dT*dA*dG*dT*dT*dT*d[5mC]*d[5mC]*eT*eA*eT*eA*eA; antisense) [compound 531233] | – | – | – | – | – | – | – | 17 | 27 | 50 | 77 | 84 | 6.00 | 86 | –
11 | 531026 (antisense eA*eT*e[5mC]*eA*eT*dG*dA*dT*dT*d[5mC]*d[5mC]*d[5mC]*dT*dT*d[5mC]*eT*eG*eA*eG*eA) [compound 531026] | – | – | – | – | – | – | 73 | 23 | 26 | 49 | 75 | 85 | 6.00 | – | –
12 | 530965 (antisense eG*eG*e[5mC]*eA*e[5mC]*dA*dG*dG*dG*d[5mC]*dT*dT*d[5mC]*dA*dG*eT*eG*eA*eG*eA) [compound 530965] | 8 | 5 | 63 | 83 | 91 | 6.10 | – | – | – | – | – | – | – | – | 73
